We go through 4 compounds from publication PMC4252588 (FEBS letters, 2014).

Where two headings read alike, the source gives them in different places. Where only a bound is given, the exact number is not on record here.

For one experiment, the system named is T. brucei CYP51. Conditions: cited from earlier work.
In experiment [1] the target is T1, Tulahuen CYP51 (Trypanosoma cruzi, UniProt Q7Z1V1). Conditions: Tulahuen T. cruzi CYP51; cited from earlier work.
Experiment [2] concerns the target T2, Y-CYP51A (Trypanosoma cruzi, UniProt Q7Z1V1, P355S). Put plainly: Type 2 spectral response titration with inhibitors. Format: binding. Conditions: calculated from the Y-CYP51A titration curves; [P450] 0.4 µM.
The next experiment relates to L. infantum CYP51. As to conditions: cited from earlier work.
The target in experiment [3] is T1, Tulahuen CYP51. Put plainly: Reconstituted CYP51 activity assay, eburicol 14α-demethylation. Format: biochemical.
Experiment [4] has as its system Tulahuen strain of T. cruzi. As to conditions: mice infected with Tulahuen strain; cited from earlier work.
In the next experiment the test system is Tulahuen T. cruzi. Conditions: cells infected by Tulahuen T. cruzi; cited from earlier work.
The test system of experiment [5] is Y strain T. cruzi amastigotes. The experiment can be described thus: Cellular infection assay, human stage. It counts as cell-based, Trypanosoma cruzi.
For experiment [6], the system named is Y strain T. cruzi epimastigotes. Put plainly: Insect stage. It counts as cell-based, Trypanosoma cruzi. As to conditions: insect stage of Y T. cruzi; 1 µM.
Experiment [7] deals with Tulahuen CYP51 (Trypanosoma cruzi, UniProt Q7Z1V1, A9G). Put plainly: Type 1 spectral response, substrate binding.
In experiment [8] the target is T2, Y-CYP51A. Put plainly: Reconstituted CYP51 activity assay, eburicol 14α-demethylation. Format: biochemical.
Experiment [9] deals with T2, Y-CYP51A. Put plainly: Type 1 spectral response, substrate binding.
[10] abbreviates: Tulahuen CYP51, inhibitor/enzyme/substrate 1:1:100, 1 h.

What is called Inhibition is the relative decrease from the control value, in per cent. Consider `O=C(N[C@@H](Cn1cncn1)c1ccc(Cl)cc1Cl)c1ccc(-c2nnc(-c3ccccc3)o2)cc1` [VNT, (R)-N-(1-(2,4-dichlorophenyl)-2-(1H-1,2,4-triazol-1-yl)ethyl)-4-(5-phenyl-1,3,4-oxadiazol-2-yl)benzamide], for which the “Inhibitory potency” value is recorded as “weaker inhibitory effect” with T. brucei CYP51, “as potent as VNI” at Tulahuen CYP51 [1] and “weaker inhibitory effect” in the experiment on L. infantum CYP51. For the same compound, the Apparent binding efficiency at Y-CYP51A [2] is 2. Further, the “Inhibition of the enzyme” value on Tulahuen CYP51 [3] (Tulahuen CYP51, equimolar amounts of inhibitor) is on record as “completely inhibited”. Moreover, the “Inhibition at I/E/S molar ratio 1:1:100, one hour reaction” value on Tulahuen CYP51 [3] (setting [10]) worked out at 100%.
As usually defined, the EC50 is the concentration needed to bring the measured effect to its halfway point. Take `O=C(N[C@@H](Cn1ccnc1)c1ccc(Cl)cc1Cl)c1ccc(-c2nnc(-c3ccccc3)o2)cc1` [VNI, (R)-N-(1-(2,4-dichlorophenyl)-2-(1H-imidazol-1-yl)ethyl)-4-(5-phenyl-1,3,4-oxadiazol-2-yl)benzamide]: the Outcome of treatment entry in [4] was “cure both the acute and chronic models of Chagas disease”. Also, in the experiment on Tulahuen T. cruzi, the “Concentration that completely eradicates the parasite” value was 8 nM and the EC50 was 1.3 nM. The EC50 in [5] (Trypanosoma cruzi, Vero, in Homo sapiens) is above 5 nM. Besides, the “Amastigotes within host cells after treatment” value in experiment [5] (cardiomyoblasts and Vero cells, up to 1 µM) is “some trace of amastigotes being observed”. The Apparent binding efficiency on Y-CYP51A [2] is given as 9. For the same compound, at Tulahuen CYP51 [3], the “Inhibition at I/E/S molar ratio 1:1:100, one hour reaction” value amounted to 100% and the “Inhibition of the enzyme” value is on record as “completely inhibited”.
Take `O=C(N[C@@H](Cn1ccnc1)c1ccc(-c2ccc(F)cc2)cc1F)c1ccc(-c2nnc(-c3ccccc3)o2)cc1` [VFV, (R)-N-(1-(3,4'-difluorobiphenyl-4-yl)-2-(1H-imidazol-1-yl)ethyl)-4-(5-phenyl-1,3,4-oxadiazol-2-yl)benzamide]: the “Inhibitory potency” value in the experiment on T. brucei CYP51, at Tulahuen CYP51 [1] and in the experiment with L. infantum CYP51 was “equally potent” each time. Besides, the “Antiparasitic potency compared with VNI” value in experiment [5] (human stage of Y T. cruzi, H9C2 cells, 48 h) is given as “higher antiparasitic potency”; in [6], “higher antiparasitic potency”. The Apparent binding efficiency at Y-CYP51A [2] is 87. The “Inhibition at I/E/S molar ratio 1:1:100, one hour reaction” value on Tulahuen CYP51 [3] (setting [10]) worked out at 100%.
Usually Kd stands for a measure of binding affinity in units of concentration. As for `C=C(CCC(C)C1CCC2(C)C3=C(CCC12C)C1(C)CCC(O)C(C)(C)C1CC3)C(C)C` (stereo not drawn) [Substrate, eburicol], the Kd at Tulahuen CYP51 [7] is 800 nM; at Y-CYP51A [9], 1540 nM. Besides, the “ΔA (% low-to-high spin transition)” value at Tulahuen CYP51 [7] (Tulahuen CYP51) was determined as 36%; on Y-CYP51A [9] (Y-CYP51A) it was 48%. In addition, the values for the Turnover number at Y-CYP51A [8] and on Tulahuen CYP51 [3] (Tulahuen CYP51) were 2.0±0.2 nmol substrate/nmol P450 /min and 5.6±0.3 nmol substrate/nmol P450 /min, respectively.
